In patent publication US10182994B2, “Nanoparticulate complex of nicotine and cerium oxide and use thereof” (priority 2014, dated 2019):

System: neurons that have low expression of ATG7
Conditions: pretreatment of neurons with lentiviral shRNA knock-down of ATG7; neurotoxin MPP+
Source text: A lentiviral shRNA was used to knock-down the expression of ATG7, a component of the autophagy system.

CN1CCCC1c1cccnc1 (stereo not shown) [nicotine]
prevention of MPP+ induced cellular damage: prevent MPP+ induced cellular damage
